Molecules are shown by their SMILES.

Type in all cases: functional
For one assay, the system named is Phytophthora infestans. The assay is described as follows: Fungicidal activity against Phytophthora infestans at 250 ppm relative to control.
Another assay has as its system Blumeria graminis. The assay is described as follows: Fungicidal activity against Blumeria graminis at 250 ppm relative to control.
For the next assay, the system named is Puccinia recondita. The assay is described as follows: Fungicidal activity against Puccinia recondita at 250 ppm relative to control.
Another assay concerns Pyricularia oryzae. The assay is described as follows: Fungicidal activity against Magnaporthe oryzae at 250 ppm relative to control.
The subject of the next assay is Botrytis cinerea. The assay is described as follows: Fungicidal activity against Botryotinia fuckeliana at 250 ppm relative to control.
Another assay relates to Rhizoctonia solani. The assay is described as follows: Fungicidal activity against Rhizoctonia solani at 250 ppm relative to control.

Regarding `[O-][n+]1onc(-c2ccc(Cl)cc2Cl)c1-c1ccc(Cl)cc1Cl` [3,4-DI-(2,4-DICHLOROPHENYL)FUROXAN], the Activity in the assay on Phytophthora infestans is recorded as 7%; in the assay on Blumeria graminis it was 0%; in the assay on Puccinia recondita it was 0%; in the assay with Pyricularia oryzae it was 38%; in the assay on Botrytis cinerea it was 0%; in the assay with Rhizoctonia solani it was 16%.

Turning to `[O-][n+]1onc(-c2ccc(C(F)(F)F)cc2)c1-c1ccc(C(F)(F)F)cc1` [3,4-DI-(4-(TRIFLUOROMETHYL)PHENYL)FUROXAN], the Activity in the assay on Phytophthora infestans is 53%; with Blumeria graminis, 17%; in the assay with Puccinia recondita, 0%; in the assay on Pyricularia oryzae, 6%; with Botrytis cinerea, 0%; with Rhizoctonia solani, 11%.

As to `[O-][n+]1onc(-c2ccc(Cl)cc2)c1-c1ccc(Cl)cc1` [3,4-DI(4-CHLOROPHENYL)FUROXAN], the Activity was determined as 28% in the assay with Phytophthora infestans; 9% with Blumeria graminis; 87% in the assay on Puccinia recondita; 14% with Pyricularia oryzae; 30% in the assay on Botrytis cinerea; 35% in the assay with Rhizoctonia solani.

For the molecule `[O-][n+]1onc(-c2ccc3ccccc3c2)c1-c1ccc2ccccc2c1` [3,4-DI(2-NAPHTHYL)FUROXAN], the Activity in the assay with Phytophthora infestans is 14%; in the assay with Blumeria graminis it was 73%; with Puccinia recondita, 0%; with Pyricularia oryzae, 60%; with Botrytis cinerea it was 51%; in the assay with Rhizoctonia solani it was 10%.

As for `Cc1c(/C=N/Nc2ccccc2)no[n+]1[O-]`, the Activity in the assay on Phytophthora infestans is on record as 36%; with Blumeria graminis, 53%; in the assay with Puccinia recondita it was 60%; with Pyricularia oryzae, 21%; in the assay on Botrytis cinerea, 43%; with Rhizoctonia solani it was 0%.

`[O-][n+]1onc(-c2cccnc2Cl)c1-c1cccnc1Cl` [3,4-DI-(2-CHLOROPYRIDIN-3-YL)FUROXAN]: the Activity worked out at 27% in the assay with Phytophthora infestans; 0% in the assay with Blumeria graminis; 10% in the assay with Puccinia recondita; 19% in the assay with Pyricularia oryzae; 0% with Botrytis cinerea; 11% in the assay with Rhizoctonia solani.

With `Cc1c(Cn2cncn2)no[n+]1[O-]` [3-METHYL-4-[(1,2,4-TRIAZOL-1-YL)METHYL]FUROXAN], the Activity in the assay with Phytophthora infestans stood at 11%; with Blumeria graminis, 25%; in the assay on Puccinia recondita, 0%; in the assay with Pyricularia oryzae it was 4%; in the assay on Botrytis cinerea it was 8%; in the assay with Rhizoctonia solani, 0%.

Take `Cc1c(C(c2ccc(Cl)cc2)n2cncn2)no[n+]1[O-]` (stereo not given) [4-[(4-CHLOROPHENYL)(1,2,4-TRIAZOL-1-YL)METHYL]-3-METHYLFUROXAN]: the Activity in the assay with Phytophthora infestans is reported as 37%; in the assay on Blumeria graminis it was 25%; in the assay on Puccinia recondita it was 0%; in the assay with Pyricularia oryzae, 16%; with Botrytis cinerea, 0%; in the assay on Rhizoctonia solani, 0%.

For `Cc1ccc(-c2no[n+]([O-])c2-c2ccc(C)s2)s1` [3,4-DI-(5-METHYLTHIOPHEN-2-YL)FUROXAN], the Activity came to 33% in the assay with Phytophthora infestans; 17% with Blumeria graminis; 0% in the assay with Puccinia recondita; 38% in the assay with Pyricularia oryzae; 0% with Botrytis cinerea; 5% with Rhizoctonia solani.

As for `Cc1ccc(/N=C/c2no[n+]([O-])c2C)cc1C`, the Activity with Phytophthora infestans came to 53%; in the assay on Blumeria graminis it was 21%; in the assay on Puccinia recondita, 0%; in the assay on Pyricularia oryzae, 11%; with Botrytis cinerea, 33%; in the assay with Rhizoctonia solani, 24%.

For `COc1ccc(C(O)c2no[n+]([O-])c2C)cc1` (stereo not given) [4-[HYDROXY(4-METHOXYPHENYL)METHYL]-3-METHYLFUROXAN], the Activity is listed as 19% in the assay with Phytophthora infestans; 0% in the assay with Blumeria graminis; 0% in the assay on Puccinia recondita; 4% in the assay with Pyricularia oryzae; 17% in the assay with Botrytis cinerea; 5% in the assay with Rhizoctonia solani.

As to `Cc1c(C(Cl)c2ccc(Cl)cc2)no[n+]1[O-]` (stereo not given) [4-[CHLORO(4-CHLOROPHENYL)METHYL]-3-METHYLFUROXAN], the Activity came out at 0% in the assay with Phytophthora infestans; 8% in the assay on Blumeria graminis; 0% with Puccinia recondita; 21% with Pyricularia oryzae; 0% in the assay with Botrytis cinerea; 0% with Rhizoctonia solani.

On to `[O-][n+]1onc(-c2c(Cl)cccc2Cl)c1-c1c(Cl)cccc1Cl` [3,4-DI-(2,6-DICHLOROPHENYL)FUROXAN], for which the Activity with Phytophthora infestans turned out to be 27%; in the assay with Blumeria graminis, 0%; in the assay on Puccinia recondita, 0%; with Pyricularia oryzae it was 41%; with Botrytis cinerea, 0%; in the assay with Rhizoctonia solani it was 0%.

On to `Cc1c(/C=N/c2ccc(Cl)cc2)no[n+]1[O-]`, for which the Activity with Phytophthora infestans was found to be 77%; with Blumeria graminis, 53%; in the assay on Puccinia recondita, 67%; in the assay on Pyricularia oryzae it was 29%; in the assay on Botrytis cinerea, 52%; with Rhizoctonia solani, 0%.

As to `Cc1c(C(O)c2ccc(Cl)cc2)no[n+]1[O-]` (stereo not given) [4-[(4-CHLOROPHENYL)HYDROXYMETHYL]-3-METHYLFUROXAN], the Activity in the assay with Phytophthora infestans is 20%; in the assay on Blumeria graminis, 39%; in the assay with Puccinia recondita it was 0%; in the assay on Pyricularia oryzae it was 0%; in the assay with Botrytis cinerea, 25%; with Rhizoctonia solani, 0%.

Turning to `[O-][n+]1onc(-c2ccccc2Cl)c1-c1ccccc1Cl` [3,4-DI-(2-CHLOROPHENYL)FUROXAN], the Activity in the assay on Phytophthora infestans is reported as 20%; with Blumeria graminis, 33%; in the assay with Puccinia recondita, 10%; with Pyricularia oryzae, 13%; in the assay with Botrytis cinerea it was 0%; in the assay with Rhizoctonia solani, 26%.

As for `[O-][n+]1onc(-c2ccccc2F)c1-c1ccccc1F` [3,4-DI-(2-FLUOROPHENYL)FUROXAN], the Activity is 0% with Phytophthora infestans; 0% in the assay with Blumeria graminis; 0% with Puccinia recondita; 6% in the assay with Pyricularia oryzae; 0% in the assay on Botrytis cinerea; 0% with Rhizoctonia solani.

With `Cc1c(/C=N/c2ccccc2)no[n+]1[O-]`, the Activity was found to be 73% with Phytophthora infestans; 15% in the assay with Blumeria graminis; 17% with Puccinia recondita; 7% with Pyricularia oryzae; 62% with Botrytis cinerea; 5% in the assay with Rhizoctonia solani.

On to `Cc1c(/C=N/Nc2ccc(Cl)cc2)no[n+]1[O-]`, for which the Activity was found to be 45% in the assay on Phytophthora infestans; 34% in the assay with Blumeria graminis; 67% in the assay with Puccinia recondita; 0% in the assay on Pyricularia oryzae; 71% in the assay on Botrytis cinerea; 37% in the assay on Rhizoctonia solani.

For the molecule `[O-][n+]1onc(-c2ccccc2C(F)(F)F)c1-c1ccccc1C(F)(F)F` [3,4-DI-(2-(TRIFLUOROMETHYL)PHENYL)FUROXAN], the Activity in the assay with Phytophthora infestans came to 0%; in the assay with Blumeria graminis, 14%; in the assay on Puccinia recondita it was 0%; with Pyricularia oryzae, 0%; in the assay on Botrytis cinerea, 2%; in the assay with Rhizoctonia solani, 6%.

Source of the values: ChEMBL document CHEMBL3046398, “Synthesis and Antifungal Activities of Furoxan Derivatives Designed as Novel Fungicide” (1998).
